We go through 27 molecules from patent publication US9890133B2 (priority 2011, dated 2018).

Values after ≈ are worked out from the molar mass of the structure shown.

The nature of one data set: in vitro. To be noted: human.
The test system of the next data set is Poliovirus 3. Put plainly: microbe, parasite or virus in culture. It counts as cell-based. To be noted: Enterovirus C, read-out: Poliovirus3 EC50.

As to `COc1cc(C(=O)NC23C(=O)c4c(N)cccc4C2(O)Oc2cc(C(C)C)ccc23)ccn1` (centres unmarked) [Example 234, N-(1-Amino-4b-hydroxy-7-isopropyl-10-oxo-9b,10-dihydro-4bH-indeno[1,2-b]benzofuran-9b-yl)-2-methoxyisonicotinamide], the values for the CC50 in the data set “in vitro” and in “in vitro” (Picorana CC50) were greater than 10 µg/mL and 9.1 µg/mL (≈ 20.4 µM), respectively. In addition, in the data set with Poliovirus 3, the EC50 was less than 0.01 µg/mL.
In the data set “in vitro”, `CC(C)c1ccc2c(c1)OC1(O)c3cccc(N)c3C(=O)C21NC(=O)c1ccncc1F` (centres unmarked) [Example 250, N-(1-Amino-4b-hydroxy-7-isopropyl-10-oxo-9b,10-dihydro-4bH-indeno[1,2-b]benzofuran-9b-yl)-3-fluoroisonicotinamide] showed a CC50 greater than 10 µg/mL. The EC50 in the data set with Poliovirus 3 is less than 0.01 µg/mL.
In the case of `COC(=O)OC12Oc3cc(C(C)C)ccc3C1(NC(C)=O)C(=O)c1c(N)cccc12` (centres unmarked) [Example 113, 9b-acetamido-1-amino-7-isopropyl-10-oxo-9b,10-dihydro-4bH-indeno[1,2-b]benzofuran-4b-yl methyl carbonate], the CC50 in the data set “in vitro” amounted to 48.8 µg/mL (≈ 119 µM); in “in vitro” (Picorana CC50), 45.5 µg/mL (≈ 111 µM). The EC50 in the data set on Poliovirus 3 was less than 0.01 µg/mL.
For `Cc1ccccc1C(=O)NC12C(=O)c3c(N)cccc3C1(O)Oc1cc(C(C)C)ccc12` (centres unmarked) [Example 186, N-(1-Amino-4b-hydroxy-7-isopropyl-10-oxo-9b,10-dihydro-4bH-benzo[d]indeno[1,2-b]furan-9b-yl)-2-methylbenzamide], the CC50 in the data set “in vitro” was greater than 10 µg/mL; in the data set “in vitro” (Picorana CC50), 8.31 µg/mL (≈ 19.4 µM). For the same molecule, the EC50 in the data set with Poliovirus 3 amounted to 0.026 µg/mL (≈ 0.0607 µM).
As to `CC(C)c1ccc2c(c1)OC1(O)c3cccc(N)c3C(=O)C21NC(=O)c1nccn1C` (centres unmarked) [Example 252, N-(1-Amino-4b-hydroxy-7-isopropyl-10-oxo-9b,10-dihydro-4bH-indeno[1,2-b]benzofuran-9b-yl)-1-methyl-1H-imidazole-2-carboxamide], the figures for the CC50 in the data set “in vitro” and in “in vitro” (Picorana CC50) were 3.53 µg/mL (≈ 8.44 µM) and 3.64 µg/mL (≈ 8.7 µM), respectively. For the same molecule, in the data set with Poliovirus 3, the concentration giving a half-maximal response (EC50) was less than 0.01 µg/mL.
Consider `CC(C)c1ccc2c(c1)OC1(O)c3cccc(N)c3C(=O)C21NC(=O)c1ccncc1` (centres unmarked) [Example 199, N-(1-Amino-4b-hydroxy-7-isopropyl-10-oxo-9b,10-dihydro-4bH-indeno[1,2-b]benzofuran-9b-yl)isonicotinamide], for which the CC50 amounted to 43 µg/mL (≈ 103 µM) in the data set “in vitro” and 48.3 µg/mL (≈ 116 µM) in the data set “in vitro” (Picorana CC50). Further, the EC50 with Poliovirus 3 was less than 0.01 µg/mL.
`Cc1cc2c(cc1C)C1(NC(=O)c3ccc4ncccc4c3)C(=O)c3c(N)cccc3C1(O)O2` (centres unmarked) [Example 262, N-(1-Amino-4b-hydroxy-7,8-dimethyl-10-oxo-9b,10-dihydro-4bH-indeno[1,2-b]benzofuran-9b-yl)quinoline-6-carboxamide] had a CC50 in the data set “in vitro” greater than 10 µg/mL. Moreover, the EC50 with Poliovirus 3 was 0.0124 µg/mL (≈ 0.0275 µM).
For `CCCCOC(=O)OC12Oc3cc(C(C)C)ccc3C1(NC(C)=O)C(=O)c1c(N)cccc12` (centres unmarked) [Example 115, 9b-Acetamido-1-amino-7-isopropyl-10-oxo-9b,10-dihydro-4bH-benzo[d]indeno[1,2-b]furan-4b-yl butyl carbonate], the CC50 came out at 23.1 µg/mL (≈ 51.1 µM) in the data set “in vitro” and 42.8 µg/mL (≈ 94.6 µM) in the data set “in vitro” (Picorana CC50). The 50% effective concentration (EC50) in the data set with Poliovirus 3 was less than 0.01 µg/mL.
In the data set “in vitro”, `CC(C)c1ccc2c(c1)OC1(O)c3cccc(N)c3C(=O)C21NC(=O)c1n[nH]c2ccccc12` (centres unmarked) [Example 212, N-(1-Amino-4b-hydroxy-7-isopropyl-10-oxo-9b,10-dihydro-4bH-benzo[d]indeno[1,2-b]furan-9b-yl)-1H-indazole-3-carboxamide] had a CC50 greater than 10 µg/mL. Also, the EC50 in the data set with Poliovirus 3 is less than 0.01 µg/mL.
In the same order, the values of `Cc1c(C(=O)NC23C(=O)c4c(N)cccc4C2(O)Oc2cc(C(C)C)ccc23)sc2ccccc12` (centres unmarked) [Example 274, N-(1-Amino-4b-hydroxy-7-isopropyl-10-oxo-9b,10-dihydro-4bH-indeno[1,2-b]benzofuran-9b-yl)-3-methylbenzo[b]thiophene-2-carboxamide] are greater than 10 µg/mL and 0.036 µg/mL (≈ 0.0743 µM).
In the case of `CC(C)c1ccc2c(c1)OC1(O)c3cccc(N)c3C(=O)C21NC(=O)c1ccccn1` (centres unmarked) [Example 197, N-(1-Amino-4b-hydroxy-7-isopropyl-10-oxo-9b,10-dihydro-4bH-indeno[1,2-b]benzofuran-9b-yl)picolinamide], the CC50 in “in vitro” is 16 µg/mL (≈ 38.6 µM); in “in vitro” (Picorana CC50), 34.5 µg/mL (≈ 82.9 µM). In addition, in the data set with Poliovirus 3, the EC50 is less than 0.01 µg/mL.
For `Cc1ccncc1C(=O)NC12C(=O)c3c(N)cccc3C1(O)Oc1cc(C(C)C)ccc12` (centres unmarked) [Example 258, N-(1-Amino-4b-hydroxy-7-isopropyl-10-oxo-9b,10-dihydro-4bH-indeno[1,2-b]benzofuran-9b-yl)-4-methylnicotinamide], the CC50 in “in vitro” was greater than 10 µg/mL. Also, the EC50 with Poliovirus 3 amounted to 0.04 µg/mL (≈ 0.0931 µM).
In turn, `CC(C)c1ccc2c(c1)OC1(O)c3cccc(N)c3C(=O)C21NC(=O)c1ccnnc1` (centres unmarked) [Example 276, N-(1-Amino-4b-hydroxy-7-isopropyl-10-oxo-9b,10-dihydro-4bH-indeno[1,2-b]benzofuran-9b-yl)pyridazine-4-carboxamide] had a CC50 in the data set “in vitro” greater than 10 µg/mL. Also, the EC50 in the data set on Poliovirus 3 was less than 0.01 µg/mL.
As for `CC(C)c1ccc2c(c1)OC1(O)c3cccc(N)c3C(=O)C21NC(=O)c1ccc(OCc2ccccc2)cc1` (centres unmarked) [Example 181, N-(1-Amino-4b-hydroxy-7-isopropyl-10-oxo-9b,10-dihydro-4bH-indeno[1,2-b]benzofuran-9b-yl)-4-(benzyloxy)benzamide], the CC50 in the data set “in vitro” is greater than 10 µg/mL. Moreover, the 50% effective concentration (EC50) in the data set with Poliovirus 3 came out at 0.036 µg/mL (≈ 0.0692 µM).
In the case of `CC(C)c1ccc2c(c1)OC1(O)c3cccc(N)c3C(=O)C21NC(=O)c1ccccc1` (centres unmarked) [Example 153, N-(1-Amino-4b-hydroxy-7-isopropyl-10-oxo-9b,10-dihydro-4bH-indeno[1,2-b]benzofuran-9b-yl)benzamide], the CC50 in the data set “in vitro” amounted to 16 µg/mL (≈ 38.7 µM); in the data set “in vitro” (Picorana CC50) it was 9.02 µg/mL (≈ 21.8 µM). In addition, the EC50 in the data set on Poliovirus 3 was less than 0.01 µg/mL.
`CC(C)c1ccc2c(c1)OC1(O)c3cccc(N)c3C(=O)C21NC(=O)[C@@H]1CSC(=O)N1` (stereo partly drawn) [Example 207, (4R)—N-(1-amino-4b-hydroxy-7-isopropyl-10-oxo-9b,10-dihydro-4bH-indeno[1,2-b]benzofuran-9b-yl)-2-oxothiazolidine-4-carboxamide]: the CC50 in “in vitro” was greater than 10 µg/mL. Further, the EC50 in the data set with Poliovirus 3 is less than 0.01 µg/mL.
Consider `Cc1ccnc(C(=O)NC23C(=O)c4c(N)cccc4C2(O)Oc2cc(C(C)C)ccc23)c1` (centres unmarked) [Example 243, N-(1-Amino-4b-hydroxy-7-isopropyl-10-oxo-9b,10-dihydro-4bH-benzo[d]indeno[1,2-b]furan-9b-yl)-4-methylpicolinamide], for which the CC50 is greater than 10 µg/mL in the data set “in vitro” and 7.36 µg/mL (≈ 17.1 µM) in the data set “in vitro” (Picorana CC50). Also, the half-maximal effective concentration (EC50) in the data set on Poliovirus 3 was less than 0.01 µg/mL.
For the molecule `CC(C)c1ccc2c(c1)OC1(O)c3cccc(N)c3C(=O)C21NC(=O)c1cc2ccccc2s1` (centres unmarked) [Example 235, N-(1-Amino-4b-hydroxy-7-isopropyl-10-oxo-9b,10-dihydro-4bH-benzo[d]indeno[1,2-b]furan-9b-yl)benzo[b]thiophene-2-carboxamide], the CC50 in “in vitro” worked out at 8.88 µg/mL (≈ 18.9 µM); in the data set “in vitro” (Picorana CC50), 7.97 µg/mL (≈ 16.9 µM). For the same molecule, in the data set on Poliovirus 3, the EC50 was less than 0.01 µg/mL.
On to `CC(C)c1ccc2c(c1)OC1(O)c3ccccc3C(=O)C21NC(=O)c1ccc([N+](=O)[O-])s1` (centres unmarked) [Example 223, N-(4b-hydroxy-7-isopropyl-10-oxo-9b,10-dihydro-4bH-benzo[d]indeno[1,2-b]furan-9b-yl)-5-nitrothiophene-2-carboxamide], for which the CC50 was 4.36 µg/mL (≈ 9.68 µM) in “in vitro” and 7.46 µg/mL (≈ 16.6 µM) in “in vitro” (Picorana CC50). Also, the EC50 in the data set on Poliovirus 3 is less than 0.01 µg/mL.
Regarding `CC(C)c1ccc2c(c1)OC1(O)c3cccc(N)c3C(=O)C21NC(=O)CF` (centres unmarked) [Example 193, N-(1-Amino-4b-hydroxy-7-isopropyl-10-oxo-9b,10-dihydro-4bH-benzo[d]indeno[1,2-b]furan-9b-yl)-2-fluoroacetamide], the CC50 in the data set “in vitro” (Picorana CC50) and in the data set “in vitro” (Rhino CC50) was greater than 10 µg/mL each time. Also, in the data set with Poliovirus 3, the EC50 was 0.011 µg/mL (≈ 0.0297 µM).
`CC(C)c1ccc2c(c1)OC1(O)c3cccc(N)c3C(=O)C21NC(=O)c1ccc2ncccc2c1` (centres unmarked) [Example 203] had a CC50 in “in vitro” greater than 10 µg/mL. Also, the concentration for a half-maximal effect (EC50) with Poliovirus 3 is less than 0.01 µg/mL.
Turning to `CC(C)c1ccc2c(c1)OC1(O)c3cccc(N)c3C(=O)C21NC(=O)C1CCCO1` (centres unmarked) [Example 174, N-(1-Amino-4b-hydroxy-7-isopropyl-10-oxo-9b,10-dihydro-4bH-benzo[d]indeno[1,2-b]furan-9b-yl)tetrahydrofurane-2-carboxamide], the CC50 in the data set “in vitro” was greater than 10 µg/mL. The EC50 in the data set on Poliovirus 3 worked out at 0.019 µg/mL (≈ 0.0465 µM).
In turn, `CC(C)c1ccc2c(c1)OC1(O)c3cccc(N)c3C(=O)C21NC=O` (centres unmarked) [Example 166, N-(1-Amino-4b-hydroxy-7-isopropyl-10-oxo-9b,10-dihydro-4bH-indeno[1,2-b]benzofuran-9b-yl)formamide] displayed a CC50 in “in vitro” greater than 10 µg/mL. For the same molecule, the concentration giving a half-maximal response (EC50) with Poliovirus 3 was less than 0.01 µg/mL.
`CC(C)c1ccc2c(c1)OC1(O)c3cccc(N)c3C(=O)C21NC(=O)Cc1ccccc1` (centres unmarked) [Example 179, N-(1-Amino-4b-hydroxy-7-isopropyl-10-oxo-9b,10-dihydro-4bH-indeno[1,2-b]benzofuran-9b-yl)-2-phenylacetamide] gave a CC50 in “in vitro” greater than 10 µg/mL. In addition, the half-maximal effective concentration (EC50) with Poliovirus 3 is less than 0.01 µg/mL.
Take `CC(C)c1ccc2c(c1)OC1(O)c3ccccc3C(=O)C21NC(=O)c1c[nH]c2ccccc12` (centres unmarked) [Example 209, N-(4b-Hydroxy-7-isopropyl-10-oxo-9b,10-dihydro-4bH-indeno[1,2-b]benzofuran-9b-yl)-1H-indole-3-carboxamide]: the CC50 is 8.43 µg/mL (≈ 19.2 µM) in “in vitro” and greater than 10 µg/mL in “in vitro” (Picorana CC50). Also, the EC50 in the data set on Poliovirus 3 came out at 0.036 µg/mL (≈ 0.0821 µM).
On to `CC(C)c1ccc2c(c1)OC1(O)c3ccccc3C(=O)C21NC(=O)c1ccc2[nH]cnc2c1` (centres unmarked) [Example 240, N-(4b-hydroxy-7-isopropyl-10-oxo-9b,10-dihydro-4bH-benzo[d]indeno[1,2-b]furan-9b-yl)-1H-benzo[d]imidazole-5-carboxamide], for which the CC50 in the data set “in vitro” was greater than 10 µg/mL; in “in vitro” (Picorana CC50), 8.25 µg/mL (≈ 18.8 µM). Besides, the EC50 in the data set on Poliovirus 3 is less than 0.01 µg/mL.
On to `CC(C)c1ccc2c(c1)OC1(O)c3cccc(N)c3C(=O)C21NC(=O)c1ccnc2ccccc12` (centres unmarked) [Example 215, N-(1-Amino-4b-hydroxy-7-isopropyl-10-oxo-9b,10-dihydro-4bH-indeno[1,2-b]benzofuran-9b-yl)quinoline-4-carboxamide], for which the CC50 in the data set “in vitro” is greater than 10 µg/mL. In the data set on Poliovirus 3, the EC50 is less than 0.01 µg/mL.

As a reminder, the EC50 is the concentration at which the effect is half-maximal.
